Measurements: ChEMBL document CHEMBL4476883, “Hydroxy formamide derivatives and their use” (2017)

Experiments:
[1] = target: T1, Bone morphogenetic protein 1 (Homo sapiens, UniProt P13497); test: Inhibition of C-terminal FLAG-6x-His epitope tagged and N-terminal human RAGE signal sequence tagged human BMP1 (23 to 721 amino acids) expressed in CHO-E1A cells pre-incubated for 10 mins before promyostatin peptide substrate addition and measured after 60 mins using 0.5 nM BMP1 by FRET based assay; format: cell-based
T1 sequence (P13497 whole entry): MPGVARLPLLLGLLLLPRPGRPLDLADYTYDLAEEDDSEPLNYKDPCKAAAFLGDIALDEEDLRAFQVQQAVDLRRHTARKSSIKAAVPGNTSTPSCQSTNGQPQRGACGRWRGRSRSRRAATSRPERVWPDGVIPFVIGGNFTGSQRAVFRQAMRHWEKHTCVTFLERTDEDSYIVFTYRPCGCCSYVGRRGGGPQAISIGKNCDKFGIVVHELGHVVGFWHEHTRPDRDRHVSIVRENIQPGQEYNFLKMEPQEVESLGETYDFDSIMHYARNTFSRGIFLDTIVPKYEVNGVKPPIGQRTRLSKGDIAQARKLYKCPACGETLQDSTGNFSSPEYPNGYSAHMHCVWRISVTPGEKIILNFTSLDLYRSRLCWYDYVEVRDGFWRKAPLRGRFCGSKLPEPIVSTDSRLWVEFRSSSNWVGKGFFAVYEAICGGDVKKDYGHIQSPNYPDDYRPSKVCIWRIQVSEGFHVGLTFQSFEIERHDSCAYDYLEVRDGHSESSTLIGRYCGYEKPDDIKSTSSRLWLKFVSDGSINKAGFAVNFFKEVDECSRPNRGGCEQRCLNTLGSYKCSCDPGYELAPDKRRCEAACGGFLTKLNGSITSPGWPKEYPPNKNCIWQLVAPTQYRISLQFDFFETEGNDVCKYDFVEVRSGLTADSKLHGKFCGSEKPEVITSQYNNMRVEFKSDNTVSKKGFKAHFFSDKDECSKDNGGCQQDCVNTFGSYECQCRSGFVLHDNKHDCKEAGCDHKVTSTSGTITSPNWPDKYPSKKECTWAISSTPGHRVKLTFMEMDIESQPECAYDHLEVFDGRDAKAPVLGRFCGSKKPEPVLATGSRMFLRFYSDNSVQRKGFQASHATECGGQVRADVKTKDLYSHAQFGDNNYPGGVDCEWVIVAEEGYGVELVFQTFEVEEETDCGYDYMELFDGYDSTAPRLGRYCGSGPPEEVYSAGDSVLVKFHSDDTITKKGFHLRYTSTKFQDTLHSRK

Tolloid-like protein 2 = target: T2, Tolloid-like protein 2 (Homo sapiens, UniProt Q9Y6L7); test: Inhibition of C-terminal Avi-6x-His epitope tagged and N-terminal human RAGE signal sequence tagged recombinant human TLL2 (26 to 1015 amino acids) expressed in CHOE1A cells incubated for 60 mins with promyostatin peptide substrate by FRET based assay; format: cell-based
T2 sequence (Q9Y6L7 whole entry): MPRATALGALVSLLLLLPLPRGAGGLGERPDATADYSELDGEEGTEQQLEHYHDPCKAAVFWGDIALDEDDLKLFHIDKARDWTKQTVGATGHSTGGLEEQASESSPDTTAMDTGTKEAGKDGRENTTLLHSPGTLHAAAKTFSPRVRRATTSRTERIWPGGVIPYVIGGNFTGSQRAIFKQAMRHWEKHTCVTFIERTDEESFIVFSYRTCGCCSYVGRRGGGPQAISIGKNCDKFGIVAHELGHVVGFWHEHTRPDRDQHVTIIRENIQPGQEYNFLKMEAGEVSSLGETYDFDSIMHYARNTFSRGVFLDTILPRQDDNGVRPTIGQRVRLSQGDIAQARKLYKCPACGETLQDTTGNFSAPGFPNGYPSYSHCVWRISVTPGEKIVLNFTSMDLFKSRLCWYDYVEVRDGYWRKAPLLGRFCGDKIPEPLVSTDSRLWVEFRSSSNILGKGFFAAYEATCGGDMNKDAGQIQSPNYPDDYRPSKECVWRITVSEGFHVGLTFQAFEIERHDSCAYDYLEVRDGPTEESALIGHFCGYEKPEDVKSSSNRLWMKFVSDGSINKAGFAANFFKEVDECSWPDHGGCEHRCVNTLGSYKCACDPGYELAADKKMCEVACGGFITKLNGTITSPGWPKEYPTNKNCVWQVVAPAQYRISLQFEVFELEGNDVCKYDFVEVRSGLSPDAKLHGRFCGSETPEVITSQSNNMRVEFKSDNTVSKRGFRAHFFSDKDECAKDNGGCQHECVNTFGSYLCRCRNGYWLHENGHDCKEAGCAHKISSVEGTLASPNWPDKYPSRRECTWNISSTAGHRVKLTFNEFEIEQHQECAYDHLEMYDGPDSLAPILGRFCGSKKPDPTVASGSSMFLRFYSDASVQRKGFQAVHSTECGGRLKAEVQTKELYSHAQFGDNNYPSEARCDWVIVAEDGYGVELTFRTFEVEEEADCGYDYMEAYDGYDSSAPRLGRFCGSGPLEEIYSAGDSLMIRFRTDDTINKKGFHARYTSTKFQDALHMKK

[2] = Reduction in PICP levels in human cardiac fibroblasts incubated for 24 to 48 hrs by ELISA; format: functional
[3] = target: T1, Bone morphogenetic protein 1; test: Inhibition of C-terminal FLAG-6x-His epitope tagged and N-terminal human RAGE signal sequence tagged human BMP1 (23 to 721 amino acids) expressed in CHO-E1A cells pre-incubated for 10 mins before promyostatin peptide substrate addition and measured after 30 mins using 50 nM BMP1 by FRET based assay; format: cell-based
Tolloid-like protein 1 = Tolloid-like protein 1 (Homo sapiens, UniProt O43897, I156V/N221S/V284A); test: Inhibition of recombinant human TLL1 I156V/N221S/V284A mutant expressed in CHOE1A cells pre-incubated for 10 mins before promyostatin peptide substrate addition and measured after 60 mins by FRET based assay; format: cell-based
Sequence of Tolloid-like protein 1 (O43897 148-1013 I156V/N221S/V284A limits assumed): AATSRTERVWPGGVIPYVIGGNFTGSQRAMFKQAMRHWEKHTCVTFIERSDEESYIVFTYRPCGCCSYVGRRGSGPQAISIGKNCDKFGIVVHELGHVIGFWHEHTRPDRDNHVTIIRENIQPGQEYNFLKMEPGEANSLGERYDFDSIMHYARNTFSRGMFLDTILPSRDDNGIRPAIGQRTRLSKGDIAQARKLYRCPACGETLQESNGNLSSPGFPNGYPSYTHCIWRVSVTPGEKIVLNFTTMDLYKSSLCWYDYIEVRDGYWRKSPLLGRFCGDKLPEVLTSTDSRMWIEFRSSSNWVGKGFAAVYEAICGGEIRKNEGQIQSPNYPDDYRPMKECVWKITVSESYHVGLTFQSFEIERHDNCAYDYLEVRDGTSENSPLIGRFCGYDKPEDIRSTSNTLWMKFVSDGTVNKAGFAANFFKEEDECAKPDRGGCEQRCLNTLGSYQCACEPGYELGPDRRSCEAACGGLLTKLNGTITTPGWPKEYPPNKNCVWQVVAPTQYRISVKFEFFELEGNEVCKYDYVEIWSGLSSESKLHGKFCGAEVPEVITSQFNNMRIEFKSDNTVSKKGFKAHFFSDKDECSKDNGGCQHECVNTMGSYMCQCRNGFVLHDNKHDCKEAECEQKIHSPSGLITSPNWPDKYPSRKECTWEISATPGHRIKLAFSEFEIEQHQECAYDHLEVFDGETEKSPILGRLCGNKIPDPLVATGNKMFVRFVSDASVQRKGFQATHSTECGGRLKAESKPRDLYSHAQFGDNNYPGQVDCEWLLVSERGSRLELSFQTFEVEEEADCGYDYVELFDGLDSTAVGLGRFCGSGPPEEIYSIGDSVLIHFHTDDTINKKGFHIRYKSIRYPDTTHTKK

Row | Compound | IC50 [1] [nM] | IC50 (Tolloid-like protein 2) [nM] | IC50 [3] [nM] | IC50 (Tolloid-like protein 1) [nM] | IC50 [2] [nM]
1 | CCCCC[C@@H](C(=O)NCNC(=O)c1cccc(-c2ccc(C(=O)N[C@@H](CC(=O)O)C(=O)O)c(OCC(=O)O)c2)n1)[C@@H](CC)N(O)C=O | < 126 | < 631 | < 251 | < 398 | < 20000
2 | CCCCC[C@@H](C(=O)NCNC(=O)c1cccc(-c2cc(OCC)cc(P(=O)(O)O)c2)c1)[C@@H](CC)N(O)C=O | < 126 | < 631 | < 251 | < 398 | < 20000
3 | CCCCC[C@@H](C(=O)NCNC(=O)c1cccc(-c2cc(C(=O)OCC)cc(S(N)(=O)=O)c2)n1)[C@@H](CC)N(O)C=O | < 126 | < 631 | < 251 | < 398 | < 20000
4 | CCCCC[C@@H](C(=O)NCNC(=O)c1cccc(-c2cc(OCC)cc(P(=O)(O)O)c2)n1)[C@@H](CC)N(O)C=O | < 126 | < 631 | < 251 | < 398 | < 20000
5 | CCCCC[C@@H](C(=O)NCNC(=O)c1cccc(-c2ccc(C(=O)N[C@@H](CC(=O)O)C(=O)O)c(Cl)c2)n1)[C@@H](CC)N(O)C=O | < 126 | < 631 | < 251 | < 398 | < 20000
6 | CCCCC[C@@H](C(=O)NCNC(=O)c1cccc(-c2ccc(C(=O)N[C@@H](CC(=O)O)C(=O)O)c(OCC)c2)c1)[C@@H](CC)N(O)C=O | < 126 | < 631 | < 251 | < 398 | < 20000

The next lines start with results.

Row | IC50 [1] [nM] | IC50 (Tolloid-like protein 2) [nM] | IC50 [3] [nM] | IC50 (Tolloid-like protein 1) [nM] | Compound | IC50 [2] [nM]
7 | < 126 | < 631 | < 251 | < 398 | CCCCC[C@@H](C(=O)NCNC(=O)c1cccc(-c2ccc(P(=O)(O)O)c(OCC)c2)c1)[C@@H](CC)N(O)C=O | < 20000
8 | < 126 | < 631 | < 251 | < 398 | CCCCC[C@@H](C(=O)NCNC(=O)c1cccc(-c2cc(OCC)cc(C(=O)O)c2O)n1)[C@@H](CC)N(O)C=O | < 20000
9 | < 126 | < 631 | < 251 | < 398 | CCCCC[C@@H](C(=O)NCNC(=O)c1cncc(-c2ccc(C(=O)O)c(OCC)c2)n1)[C@@H](CC)N(O)C=O | < 20000
10 | < 126 | < 631 | < 251 | < 398 | CCCCC[C@@H](C(=O)NCNC(=O)c1cccc(-c2ccc(C(=O)O)c(O)c2)c1)[C@@H](CC)N(O)C=O | < 20000
11 | < 126 | < 631 | < 251 | < 398 | CCCCC[C@@H](C(=O)NCNC(=O)c1cccc(-c2cc(OCC)cc(C(=O)N[C@@H](CC(=O)O)C(=O)O)c2)n1)[C@@H](CC)N(O)C=O | < 20000
12 | < 126 | < 631 | < 251 | < 398 | CCCCC[C@@H](C(=O)NCNC(=O)c1cc(C(=O)O)cc(-c2ccccc2)c1)[C@@H](CC)N(O)C=O | < 20000
13 | < 126 | < 631 | < 251 | < 398 | CCCCC[C@@H](C(=O)NCNC(=O)c1cccc(-c2cccc(S)c2)c1)[C@@H](CC)N(O)C=O | < 20000
14 | < 126 | < 631 | < 251 | < 398 | CCCCC[C@@H](C(=O)NCNC(=O)c1ccc(F)c(-c2ccc(C(=O)O)c(OCC)c2)n1)[C@@H](CC)N(O)C=O | < 20000
15 | < 126 | < 631 | < 251 | < 398 | CCCCC[C@@H](C(=O)NCNC(=O)c1cccc(-c2cc(OCC)cc(S(=O)(=O)O)c2)c1)[C@@H](CC)N(O)C=O | < 20000
16 | < 126 | < 631 | < 251 | < 398 | CCCCC[C@@H](C(=O)NCNC(=O)c1cccc(-c2ccc(C(=O)N[C@@H](CC(=O)O)C(=O)O)c(OCC(=O)O)c2)c1)[C@@H](CC)N(O)C=O | < 20000
